Reference: PubChem BioAssay AID2060484 (Molecular Pharmacology Branch, DTP, NCI, 2025)

Tested on: SUM149PT spheroids with HUVEC/MSC, viability
Test: Anticancer human tumor SUM149PT cell line growth inhibition [GQUAD];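 further: spheroids exposed to drugs for seven days before readout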;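 on viability, T/C: percent viability relative to DMSO vehicle control taken as 100%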
Conditions: for IC50: curve of first compound; for viability, T/C: stronger effect = lower value
How it was run: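 Tumor cells were grown as complex spheroids with HUVEC endothelial cells and mesenchymal stem cells as stroma. G-quadruplex stabilizers were combined with targeted agents over half-log dilutions from near the clinical Cmax, or from 10 microM.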

## CCCS(=O)(=O)Nc1ccc(F)c(C(=O)c2c[nH]c3ncc(-c4ccc(Cl)cc4)cc23)c1F + Cc1cnc(CNC(=O)c2c(=O)c3ccc(N4CCCN(C)CC4)nc3n3c2sc2ccccc23)cn1
Second compound 0.0316 µM
  IC50: 5870 nM
Second compound 0.1 µM
  IC50: 3100 nM
Second compound 0.316 µM
  IC50: 1450 nM
Second compound 1 µM
  IC50: < 31.6 nM
Second compound 3.16 µM
  IC50: < 31.6 nM
Second compound 10 µM
  IC50: < 31.6 nM
Second compound 0.0316 µM, first compound 0.0316 µM
  viability, T/C: 80%
Second compound 0.0316 µM, first compound 0.1 µM
  viability, T/C: 76.5%
Second compound 0.0316 µM, first compound 0.316 µM
  viability, T/C: 96.1%
Second compound 0.0316 µM, first compound 1 µM
  viability, T/C: 88.6%
Second compound 0.0316 µM, first compound 3.16 µM
  viability, T/C: 67.5%
Second compound 0.0316 µM, first compound 10 µM
  viability, T/C: 34.9%
Second compound 0.1 µM, first compound 0.0316 µM
  viability, T/C: 67.8%
Second compound 0.1 µM, first compound 0.1 µM
  viability, T/C: 68.3%
Second compound 0.1 µM, first compound 0.316 µM
  viability, T/C: 79.3%
Second compound 0.1 µM, first compound 1 µM
  viability, T/C: 66.5%
Second compound 0.1 µM, first compound 3.16 µM
  viability, T/C: 50%
Second compound 0.1 µM, first compound 10 µM
  viability, T/C: 33.2%
Second compound 0.316 µM, first compound 0.0316 µM
  viability, T/C: 51.9%
Second compound 0.316 µM, first compound 0.1 µM
  viability, T/C: 57.5%
Second compound 0.316 µM, first compound 0.316 µM
  viability, T/C: 56.5%
Second compound 0.316 µM, first compound 1 µM
  viability, T/C: 52.9%
Second compound 0.316 µM, first compound 3.16 µM
  viability, T/C: 43.2%
Second compound 0.316 µM, first compound 10 µM
  viability, T/C: 31%
Second compound 1 µM, first compound 0.0316 µM
  viability, T/C: 51.5%
Second compound 1 µM, first compound 0.1 µM
  viability, T/C: 46%
Second compound 1 µM, first compound 0.316 µM
  viability, T/C: 44.6%
Second compound 1 µM, first compound 1 µM
  viability, T/C: 46.6%
Second compound 1 µM, first compound 3.16 µM
  viability, T/C: 37.7%
Second compound 1 µM, first compound 10 µM
  viability, T/C: 25.4%
Second compound 3.16 µM, first compound 0.0316 µM
  viability, T/C: 37.5%
Second compound 3.16 µM, first compound 0.1 µM
  viability, T/C: 38%
Second compound 3.16 µM, first compound 0.316 µM
  viability, T/C: 43.1%
Second compound 3.16 µM, first compound 1 µM
  viability, T/C: 38%
Second compound 3.16 µM, first compound 3.16 µM
  viability, T/C: 37%
Second compound 3.16 µM, first compound 10 µM
  viability, T/C: 23.4%
Second compound 10 µM, first compound 0.0316 µM
  viability, T/C: 0.2%
Second compound 10 µM, first compound 0.1 µM
  viability, T/C: 11.8%
Second compound 10 µM, first compound 0.316 µM
  viability, T/C: 0.67%
Second compound 10 µM, first compound 1 µM
  viability, T/C: 11.7%
Second compound 10 µM, first compound 3.16 µM
  viability, T/C: 2.28%
Second compound 10 µM, first compound 10 µM
  viability, T/C: 2.88%
